Measurements reported in patent US6355799B1, “Substituted benzene compounds, process for their preparation, and herbicidal and defoliant compositions containing them” (ISK Americas Incorporated, priority 1997, dated 2002).

Experiments:
Type in all cases: in vivo
[1] = tested on: redroot pigweed (Amaranthus retroflexus, AMARE); assay: Pre-emerge test, greenhouse herbicide activity screening; details: pre-emerge, phytotoxicity rating 0-100 at 14 days after application
Summary of the method: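 Compounds in acetone were track-sprayed at 187 l/ha, 15–1000 g ai/ha, onto sandy loam pots. Pre-emerge seeds were sown one day before spraying, with surface watering afterwards. Post-emerge plants were at the 2–3 leaf stage and sprayed with 0.25% v/v non-ionic surfactant. Injury was rated 0–100 at 14 days.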

[2] = tested on: field corn (Zea mays L., var. Dekalb 535, CORN); assay: Post-emerge test, crop safety; details: post-emerge, crop damage rating 0-100 at 14 days after application
Summary of the method: (§1)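 Herbicidal damage is scored 0 (none) to 100 (complete plant death) two weeks after a simulated field spray. Rates span 15–1000 g ai/ha, delivered in acetone at 187 l/ha. For post-emergence treatments, plants have 2–3 leaves and the spray carries 0.25% v/v non-ionic surfactant.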

[3] = tested on: upland rice (Oryza sp., var. Tebonnet, RICE); assay: Post-emerge test, crop safety; details: post-emerge, crop damage rating 0-100 at 14 days after application
Summary of the method: as §1

[4] = tested on: ivyleaf morningglory (Ipomoea hederacea, IPOHE); assay: Post-emerge test, greenhouse herbicide activity screening; details: post-emerge, phytotoxicity rating 0-100 at 14 days after application
Summary of the method: (§2)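 Applied at 15–1000 g ai/ha from acetone in 187 l/ha spray volume. Post-emergence applications included 0.25% v/v non-ionic surfactant and reached plants sown 8–21 days before. Pre-emergence applications were incorporated by surface watering. Efficacy or crop damage was rated on a 0–100 scale after 14 days.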

[5] = tested on: green foxtail (Setaria viridis, SETVI); assay: as above; details: post-emerge, phytotoxicity rating 0-100 at 14 days after application
Summary of the method: as §2

[6] = tested on: large crabgrass (Digitaria sanguinalis, DIGSA); assay: as above; details: post-emerge, phytotoxicity rating 0-100 at 14 days after application
Summary of the method: as §2

[7] = tested on: redroot pigweed (Amaranthus retroflexus, AMARE); assay: as above; details: post-emerge, phytotoxicity rating 0-100 at 14 days after application
Summary of the method: as §2

[8] = tested on: lambsquarters (Chenopodium album, CHEAL); assay: as above; details: post-emerge, phytotoxicity rating 0-100 at 14 days after application
Summary of the method: as §2

[9] = tested on: sicklepod (Cassia obtusifolia, CASOB); assay: as above; details: post-emerge, phytotoxicity rating 0-100 at 14 days after application
Summary of the method: as §2

[10] = tested on: johnsongrass (Sorghum halepense, SORHA); assay: as above; details: post-emerge, phytotoxicity rating 0-100 at 14 days after application
Summary of the method: as §2

[11] = tested on: velvetleaf (Abutilon theophrasti, ABUTH); assay: as above; details: post-emerge, phytotoxicity rating 0-100 at 14 days after application
Summary of the method: as §2

[12] = tested on: field corn (Zea mays L., var. Dekalb 535, CORN); assay: Pre-emerge test, crop safety; details: crop damage, pre-emerge, phytotoxicity rating 0-100 at 14 days after application
Summary of the method: (§3)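 Visual ratings on a 0-100 scale (0 no damage, 100 all plants dead) were taken at 14 days after treatment. Rates of 15-1000 g ai/ha in acetone, 187 l/ha, were sprayed onto soil one day after planting (pre-emerge) or onto 2-3 leaf plants with 0.25% v/v surfactant (post-emerge).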

[13] = tested on: upland rice (Oryza sp., var. Tebonnet, RICE); assay: Pre-emerge test, crop safety; details: crop damage, pre-emerge, phytotoxicity rating 0-100 at 14 days after application
Summary of the method: as §3

[14] = tested on: barnyardgrass (Echinochloa crus-galli, ECHCG); assay: Pre-emerge test, greenhouse herbicide activity screening; details: pre-emerge, phytotoxicity rating 0-100 at 14 days after application
Summary of the method: as §1

[15] = tested on: ivyleaf morningglory (Ipomoea hederacea, IPOHE); assay: as above; details: pre-emerge, phytotoxicity rating 0-100 at 14 days after application
Summary of the method: as §1

[16] = tested on: green foxtail (Setaria viridis, SETVI); assay: as above; details: pre-emerge, phytotoxicity rating 0-100 at 14 days after application
Summary of the method: as §1

[17] = tested on: large crabgrass (Digitaria sanguinalis, DIGSA); assay: as above; details: pre-emerge, phytotoxicity rating 0-100 at 14 days after application
Summary of the method: as §1

[18] = tested on: lambsquarters (Chenopodium album, CHEAL); assay: as above; details: pre-emerge, phytotoxicity rating 0-100 at 14 days after application
Summary of the method: as §1

[19] = tested on: sicklepod (Cassia obtusifolia, CASOB); assay: as above; details: pre-emerge, phytotoxicity rating 0-100 at 14 days after application
Summary of the method: as §1

[20] = tested on: johnsongrass (Sorghum halepense, SORHA); assay: as above; details: pre-emerge, phytotoxicity rating 0-100 at 14 days after application
Summary of the method: as §1

[21] = tested on: velvetleaf (Abutilon theophrasti, ABUTH); assay: as above; details: pre-emerge, phytotoxicity rating 0-100 at 14 days after application
Summary of the method: as §1

COc1c(Cl)cc(F)c(N2C(=O)C3=C(CCCC3)C2=O)c1NC(=O)C=Cc1ccccc1 [8-31]
10: Post-emerge Herbicidal Activity CORN ([2]; 63 g ai/ha) | Post-emerge Herbicidal Activity CORN ([2]; 250 g ai/ha) | Post-emerge Herbicidal Activity DIGSA ([6]; 63 g ai/ha) | Post-emerge Herbicidal Activity SORHA ([10]; 63 g ai/ha) | Pre-emerge Herbicidal Activity CORN ([12]; rate 250 g ai/ha) | Pre-emerge Herbicidal Activity SETVI ([16]; rate 63 g ai/ha) | Pre-emerge Herbicidal Activity SETVI ([16]; rate 250 g ai/ha) | Pre-emerge Herbicidal Activity DIGSA ([17]; rate 250 g ai/ha) | Pre-emerge Herbicidal Activity SORHA ([20]; rate 250 g ai/ha)
90: Pre-emerge Herbicidal Activity AMARE ([1]; rate 63 g ai/ha)
80: Post-emerge Herbicidal Activity CASOB ([9]; 250 g ai/ha)
100: Pre-emerge Herbicidal Activity AMARE ([1]; rate 250 g ai/ha) | Post-emerge Herbicidal Activity IPOHE ([4]; 63 g ai/ha) | Post-emerge Herbicidal Activity IPOHE ([4]; 250 g ai/ha) | Post-emerge Herbicidal Activity AMARE ([7]; 63 g ai/ha) | Post-emerge Herbicidal Activity AMARE ([7]; 250 g ai/ha) | Post-emerge Herbicidal Activity CHEAL ([8]; 63 g ai/ha) | Post-emerge Herbicidal Activity CHEAL ([8]; 250 g ai/ha) | Post-emerge Herbicidal Activity ABUTH ([11]; 63 g ai/ha) | Post-emerge Herbicidal Activity ABUTH ([11]; 250 g ai/ha) | Pre-emerge Herbicidal Activity CHEAL ([18]; rate 63 g ai/ha) | Pre-emerge Herbicidal Activity CHEAL ([18]; rate 250 g ai/ha)
45: Post-emerge Herbicidal Activity RICE ([3]; 63 g ai/ha)
30: Post-emerge Herbicidal Activity RICE ([3]; 250 g ai/ha) | Post-emerge Herbicidal Activity DIGSA ([6]; 250 g ai/ha) | Post-emerge Herbicidal Activity SORHA ([10]; 250 g ai/ha) | Pre-emerge Herbicidal Activity RICE ([13]; rate 250 g ai/ha) | Pre-emerge Herbicidal Activity IPOHE ([15]; rate 250 g ai/ha)
20: Post-emerge Herbicidal Activity SETVI ([5]; 63 g ai/ha) | Post-emerge Herbicidal Activity SETVI ([5]; 250 g ai/ha) | Pre-emerge Herbicidal Activity CASOB ([19]; rate 250 g ai/ha)
95: Pre-emerge Herbicidal Activity ABUTH ([21]; rate 250 g ai/ha)
0: Pre-emerge Herbicidal Activity CORN ([12]; rate 63 g ai/ha) | Pre-emerge Herbicidal Activity RICE ([13]; rate 63 g ai/ha) | Pre-emerge Herbicidal Activity ECHCG ([14]; rate 63 g ai/ha) | Pre-emerge Herbicidal Activity ECHCG ([14]; rate 250 g ai/ha) | Pre-emerge Herbicidal Activity IPOHE ([15]; rate 63 g ai/ha) | Pre-emerge Herbicidal Activity DIGSA ([17]; rate 63 g ai/ha) | Pre-emerge Herbicidal Activity CASOB ([19]; rate 63 g ai/ha) | Pre-emerge Herbicidal Activity SORHA ([20]; rate 63 g ai/ha)
60: Post-emerge Herbicidal Activity CASOB ([9]; 63 g ai/ha) | Pre-emerge Herbicidal Activity ABUTH ([21]; rate 63 g ai/ha)
